Measured values taken from patent US7550459B2, “Tetrahydroquinoline analogues as muscarinic agonists” (Acadia Pharmaceuticals, Inc., priority 2001, dated 2009).
Read-outs that look alike come from different tables or passages of the source.

Experiments:
[1] = target: T1, M5 muscarinic receptor (Homo sapiens, UniProt P08912); assay: Receptor Selection and Amplification (R-SAT) assay, cloned M5 receptor; assay type: cell-based; conditions: for Emax: read-out: m5 % Efficacy; for EC50: read-out: m5 pEC50 (converted)
T1 construct: expressed in transfected cells
T1 sequence (P08912 1-532): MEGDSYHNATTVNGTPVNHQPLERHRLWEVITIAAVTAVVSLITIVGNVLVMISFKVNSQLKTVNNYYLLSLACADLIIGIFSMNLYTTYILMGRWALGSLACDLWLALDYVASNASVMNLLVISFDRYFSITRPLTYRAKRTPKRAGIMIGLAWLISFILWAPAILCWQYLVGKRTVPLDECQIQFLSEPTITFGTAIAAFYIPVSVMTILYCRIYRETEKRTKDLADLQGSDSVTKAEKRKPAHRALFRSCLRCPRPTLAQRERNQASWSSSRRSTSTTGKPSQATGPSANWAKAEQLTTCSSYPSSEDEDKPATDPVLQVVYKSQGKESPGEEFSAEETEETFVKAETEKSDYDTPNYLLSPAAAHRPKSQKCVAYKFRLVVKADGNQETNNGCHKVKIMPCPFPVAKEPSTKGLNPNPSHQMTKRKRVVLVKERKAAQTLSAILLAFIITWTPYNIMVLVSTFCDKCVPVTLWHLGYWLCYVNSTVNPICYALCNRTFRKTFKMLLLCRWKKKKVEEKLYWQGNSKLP
Source text: (§1) The EC50 for an agonist is intended to denote the concentration of a compound needed to achieve 50% of a maximal response seen in an in vitro assay such as R-SAT. For inverse agonists, EC50 is intended to denote the concentration of a compound needed to achieve 50% inhibition of an R-SAT response from basal, no compound, levels.
(§2) A particularly convenient functional assay system is the receptor selection and amplification assay (R-SAT assay) in U.S. Pat. No. 5,707,798, which describes a method of screening for bioactive compounds by utilizing the ability of cells transfected with receptor DNA, e.g., coding for the different muscarinic subtypes, to amplify in the presence of a ligand of the receptor. Cell amplification is detected as increased levels of a marker also expressed by the cells.
(§3) Receptor Selection and Amplification (R-SAT) assays were carried out using the cloned M1-M5 receptors essentially as described in: Brauner-Osborne H, Brann M R. Pharmacology of muscarinic acetylcholine receptor subtypes (m1-m5): high throughput assays in mammalian cells. Eur J Pharmacol Jan. 4, 1996;295(1):93-102, and Spalding T A, Trotter C, Skjaerbaek N, Messier T L, Currier E A, Burstein E S, Li D, Hacksell U, Brann M R. Discovery of an ectopic activation site on the M(1) muscarinic receptor. Mol Pharmacol. 2002 June;61(6):1297-302.

[2] = target: T2, M4 muscarinic receptor (Homo sapiens, UniProt P08173); assay: Receptor Selection and Amplification (R-SAT) assay, cloned M4 receptor; assay type: cell-based; conditions: R-SAT, cloned m4 receptor; for Emax: read-out: m4 % Efficacy; for EC50: read-out: m4 pEC50 (converted)
T2 construct: expressed in transfected cells
T2 sequence (P08173 1-479): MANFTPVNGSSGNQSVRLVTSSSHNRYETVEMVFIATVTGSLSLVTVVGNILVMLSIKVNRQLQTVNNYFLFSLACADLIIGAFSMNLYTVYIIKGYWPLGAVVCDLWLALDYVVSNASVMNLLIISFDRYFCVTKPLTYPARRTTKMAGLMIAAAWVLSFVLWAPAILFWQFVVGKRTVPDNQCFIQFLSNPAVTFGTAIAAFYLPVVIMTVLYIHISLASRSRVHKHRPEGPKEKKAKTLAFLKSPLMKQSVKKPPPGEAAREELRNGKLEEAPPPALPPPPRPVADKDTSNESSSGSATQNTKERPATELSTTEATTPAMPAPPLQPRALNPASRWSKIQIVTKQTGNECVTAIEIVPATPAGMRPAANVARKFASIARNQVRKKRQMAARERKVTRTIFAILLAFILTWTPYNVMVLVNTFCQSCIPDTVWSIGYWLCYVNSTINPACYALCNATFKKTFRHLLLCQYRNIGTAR
Source text: as §1, §2, §3

[3] = target: T3, M2 muscarinic receptor (Homo sapiens, UniProt P08172); assay: Receptor Selection and Amplification (R-SAT) assay, cloned M2 receptor; assay type: cell-based; set-up: M2 Eff: scale not given here; conditions: for Emax: read-out: m2 % Efficacy
T3 construct: expressed in transfected cells
T3 sequence (P08172 1-466): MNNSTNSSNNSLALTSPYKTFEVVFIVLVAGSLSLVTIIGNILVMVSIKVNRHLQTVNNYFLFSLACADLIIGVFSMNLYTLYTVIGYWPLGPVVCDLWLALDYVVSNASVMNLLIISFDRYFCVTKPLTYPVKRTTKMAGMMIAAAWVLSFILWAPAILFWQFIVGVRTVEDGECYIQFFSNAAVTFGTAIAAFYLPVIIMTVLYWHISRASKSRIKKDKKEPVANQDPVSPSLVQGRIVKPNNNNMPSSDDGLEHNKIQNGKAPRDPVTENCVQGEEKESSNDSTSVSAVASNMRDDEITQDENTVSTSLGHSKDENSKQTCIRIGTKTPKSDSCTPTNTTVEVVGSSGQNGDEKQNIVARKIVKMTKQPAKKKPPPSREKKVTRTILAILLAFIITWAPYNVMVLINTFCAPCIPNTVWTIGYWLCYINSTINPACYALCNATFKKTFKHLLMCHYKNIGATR
Source text: as §1, §2, §3

[4] = target: T4, M1 muscarinic receptor (Homo sapiens, UniProt P11229); assay: Receptor Selection and Amplification (R-SAT) assay, cloned M1 receptor; assay type: cell-based; set-up: M1 Eff: scale not given here; conditions: for Emax: read-out: m1 % Efficacy
T4 construct: expressed in transfected cells
T4 sequence (P11229 1-460): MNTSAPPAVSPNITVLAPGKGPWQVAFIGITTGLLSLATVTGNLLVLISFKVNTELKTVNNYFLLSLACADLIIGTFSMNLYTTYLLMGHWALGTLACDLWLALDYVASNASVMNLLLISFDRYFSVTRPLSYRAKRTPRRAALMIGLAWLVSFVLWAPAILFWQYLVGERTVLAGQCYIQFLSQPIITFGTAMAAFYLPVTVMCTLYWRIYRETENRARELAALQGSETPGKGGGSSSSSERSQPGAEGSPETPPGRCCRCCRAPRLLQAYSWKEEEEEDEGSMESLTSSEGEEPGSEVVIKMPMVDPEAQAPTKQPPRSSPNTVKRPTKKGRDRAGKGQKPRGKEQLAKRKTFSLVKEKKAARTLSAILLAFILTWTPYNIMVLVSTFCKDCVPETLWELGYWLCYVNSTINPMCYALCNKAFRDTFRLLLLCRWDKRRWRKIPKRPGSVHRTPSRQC
Source text: as §1, §2, §3

[5] = target: T5, M3 muscarinic receptor (Homo sapiens, UniProt P20309); assay: Receptor Selection and Amplification (R-SAT) assay, cloned M3 receptor; assay type: cell-based
T5 construct: expressed in transfected cells
Source text: as §1, §2, §3

[6] = some AChE inhibitors, such as tacrine; cited from earlier work
[7] = R-SAT, cloned m2 receptor, read-out: m2 pEC50 (converted)
[8] = R-SAT, cloned m1 receptor, read-out: m1 pEC50 (converted)
[9] = R-SAT, second table (COMPOUND ID series)
[10] = M2 pEC50, R-SAT, second table (COMPOUND ID series)
[11] = M1 pEC50, R-SAT, second table (COMPOUND ID series)

T5 sequence (P20309 whole entry): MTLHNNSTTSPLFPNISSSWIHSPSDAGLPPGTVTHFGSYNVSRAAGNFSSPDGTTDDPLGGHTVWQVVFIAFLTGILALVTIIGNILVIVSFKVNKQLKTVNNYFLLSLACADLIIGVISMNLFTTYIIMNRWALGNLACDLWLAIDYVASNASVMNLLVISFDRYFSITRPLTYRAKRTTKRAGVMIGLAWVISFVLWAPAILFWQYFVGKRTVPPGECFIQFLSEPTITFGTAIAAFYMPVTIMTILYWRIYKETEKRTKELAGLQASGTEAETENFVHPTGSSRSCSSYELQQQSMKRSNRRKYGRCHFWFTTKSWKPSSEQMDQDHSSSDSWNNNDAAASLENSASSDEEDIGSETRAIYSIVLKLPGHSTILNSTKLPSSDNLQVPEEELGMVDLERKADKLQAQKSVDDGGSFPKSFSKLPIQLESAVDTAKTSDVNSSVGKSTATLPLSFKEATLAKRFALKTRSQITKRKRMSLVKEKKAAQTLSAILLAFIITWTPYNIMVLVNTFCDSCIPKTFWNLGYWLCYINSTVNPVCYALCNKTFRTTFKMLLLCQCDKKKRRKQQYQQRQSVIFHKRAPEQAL

CCCCC1CCN(CCCN2C(=O)COc3ccc(C)cc32)CC1 [Compound 64LHY89-6, 4-[3-(4-Butyl-piperidin-1-yl)-propyl]-6-methyl-4H-benzo[1,4]oxazin-3-one]
Emax [1]: 48%
EC50 [1]: 631 nM
Emax [2]: 50%
EC50 [2]: 316 nM
Emax ([3]; R-SAT, cloned m2 receptor): 35%
EC50 [3, 7]: 631 nM
Emax ([4]; R-SAT, cloned m1 receptor): 80%
EC50 [4, 8]: 39.8 nM

CCON=C1CC2CCC(C1)N2C[C@@H](C)CN1C(=O)COc2ccccc21 (single isomer, unassigned) [Compound 00261435]
EC50 [5]: 631 nM
M3 Eff [5, 9]: 82.8
EC50 [3, 10]: 79.4 nM
M2 Eff [3, 9]: 128
EC50 [4, 11]: 3.98 nM
M1 Eff [4, 9]: 121

C[C@@H](CN1C(=O)COc2ccccc21)CN1[C@@H]2CC[C@H]1C[C@@H](OCC1CC1)C2 [Compound 00262909, (R)-4-[3-(3a -Cyclopropylmethoxy-8-azabicyclo[3.2.1]oct-8-yl)-2-methylpropyl]-4H-benzo[1.4]oxazin-3-one]
EC50 [5]: 398 nM
M3 Eff [5, 9]: 52
EC50 [3, 10]: 39.8 nM
M2 Eff [3, 9]: 124
EC50 [4, 11]: 2.51 nM
M1 Eff [4, 9]: 137

CCOCCC1CC2CCC(C1)N2CC(C)CN1C(=O)COc2ccccc21 (single isomer, unassigned) [Compound 00263201]
EC50 [5]: 158 nM
M3 Eff [5, 9]: 30
EC50 [3, 10]: 79.4 nM
M2 Eff [3, 9]: 52
EC50 [4, 11]: 1 nM
M1 Eff [4, 9]: 126

C[C@H](CN1CCC(OCC2CC2)CC1)CN1C(=O)COc2ccccc21 [Compound 00262908, 4-[(R)-3-(4-Cyclopropylmethoxypiperidin-1-yl)-2-methylpropyl]-4H-benzo[1,4]oxazin-3-one]
M3 Eff [5, 9]: 74
EC50 ([5]; R-SAT, second table (COMPOUND ID series), read-out: M3 pEC50 (converted)): 2510 nM
M2 Eff [3, 9]: 103
EC50 ([3]; R-SAT, second table (COMPOUND ID series), read-out: M2 pEC50 (converted)): 631 nM
M1 Eff [4, 9]: 126
EC50 ([4]; R-SAT, second table (COMPOUND ID series), read-out: M1 pEC50 (converted)): 12.6 nM

CCCCC1CCN(CCCN2C(=O)CCc3cc(OC)ccc32)CC1 [Compound 77LH22-A, 1-[3-(4-Butyl-piperidin-1-yl)-propyl]-6-methoxy-3,4-dihydro-1H-quinolin-2-one]
Emax [1]: 37%
EC50 [1]: > 3160 nM
Emax ([4]; R-SAT, cloned m1 receptor): 76%
EC50 [4, 8]: 79.4 nM

CCCCC1CCN(CCCN2C(=O)COc3cc(F)ccc32)CC1 [Compound 81MF763, 4-[3-(4-Butylpiperidin-1-yl)propyl]-7-fluoro-4H-benzo[1,4]oxazin-3-one]
Emax [1]: 50%
EC50 [1]: 1260 nM
Emax [2]: 57%
EC50 [2]: 398 nM
Emax ([3]; R-SAT, cloned m2 receptor): 47%
EC50 [3, 7]: 251 nM
Emax ([4]; R-SAT, cloned m1 receptor): 92%

Nc1c2c(nc3ccccc13)CCCC2 [tacrine]
patients with elevated liver transaminases (significant hepatotoxicity) [6]: about 30%

CCCCC1CCN(CCCN2CCOc3ccc(CC)cc32)CC1 [Compound 64LHY91-5, 4-[3-(4-Butyl-piperidin-1-yl)-propyl]-6-ethyl-3,4-dihydro-2H-benzo[1,4]oxazine]
Emax [1]: 38%
EC50 [1]: 631 nM
Emax [2]: 51%
EC50 [2]: 2000 nM
Emax ([4]; R-SAT, cloned m1 receptor): 69%
EC50 [4, 8]: 158 nM
